According to patent US20250099478A1, “PLASMA KALLIKREIN INHIBITORS” (Merck Sharp & Dohme LLC, priority 2022, published 2025):

How the values were obtained:
Human plasma kallikrein = target: T1, Human plasma kallikrein (Homo sapiens, UniProt P03952); experiment: Plasma Kallikrein Assay; format: biochemical; details: purified Human plasma kallikrein 0.5 nM, substrate Acetyl-K-P-R-AFC; read-out: PKal IC50
T1 construct: yields a heavy chain (371 amino acids) and a light chain (248 amino acids); purchased Enzyme Research Laboratories
Summary of the method: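 Purified human plasma kallikrein (0.5 nM) hydrolysing fluorogenic Acetyl-K-P-R-AFC ([…]) in 50 mM HEPES pH 7.4, 150 mM NaCl, 5 mM CaCl2, 0.1% PEG 8000, at rt or 37 °C after enzyme–inhibitor equilibration. IC50 from four-parameter logistic fit; Ki via Cheng–Prusoff.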

human factor XIa = target: T2, human factor XIa (Homo sapiens, UniProt P03951); experiment: Factor XIa Assay; format: biochemical; details: human factor XIa 0.04 nM, substrate GPR-AFC, 25° C.
T2 construct: with human (0.04 nM) factor XIa
Protocol: The effectiveness of a compound of the present invention as an inhibitor of Coagulation factor XIa can be determined using a relevant purified serine protease, and an appropriate synthetic substrate. The rate of hydrolysis of the chromogenic or fluorogenic substrate by the relevant serine protease was measured both in the absence and presence of compounds of the present invention. Assays were conducted at rt or at 37° C. […] A decrease in the rate of fluorescence change in the presence of inhibitor is indicative of enzyme inhibition. Such methods are known to one skilled in the art. The results of this assay are expressed as the half-maximal inhibitory concentrations (IC50), or the inhibitory constant, Ki.
Compounds were pre-incubated for 30 min at 25° C. with human (0.04 nM) factor XIa in 50 mM HEPES buffer with 150 mM sodium chloride, 5 mM calcium chloride, 0.1% PEG 8000, pH 7.4. factor XIa enzymatic activity was determined by addition of the substrate glycine-proline-arginine-7-amido-4-trifluoromethylcoumarin (GPR-AFC) and measurement of the fluorescence at 400/505 nm after a 60 min incubation at 25° C. The % inhibition for each data point was calculated from the data and analyzed using the log (inhibitor) vs. response four parameters equation to determine the half-maximal inhibitory concentrations (IC50). The IC50 were converted to equilibrium inhibitory constants (Ki) using the Cheng-Prusoff equation.

T2 sequence (P03951 388-625 limits assumed): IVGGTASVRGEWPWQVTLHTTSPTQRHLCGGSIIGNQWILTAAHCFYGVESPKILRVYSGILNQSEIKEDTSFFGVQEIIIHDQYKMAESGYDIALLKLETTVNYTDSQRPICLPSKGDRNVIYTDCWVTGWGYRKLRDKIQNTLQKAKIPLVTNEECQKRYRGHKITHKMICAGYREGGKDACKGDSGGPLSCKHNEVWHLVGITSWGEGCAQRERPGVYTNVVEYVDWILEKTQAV
T2 sequence (P03951 19-387 partner limits assumed): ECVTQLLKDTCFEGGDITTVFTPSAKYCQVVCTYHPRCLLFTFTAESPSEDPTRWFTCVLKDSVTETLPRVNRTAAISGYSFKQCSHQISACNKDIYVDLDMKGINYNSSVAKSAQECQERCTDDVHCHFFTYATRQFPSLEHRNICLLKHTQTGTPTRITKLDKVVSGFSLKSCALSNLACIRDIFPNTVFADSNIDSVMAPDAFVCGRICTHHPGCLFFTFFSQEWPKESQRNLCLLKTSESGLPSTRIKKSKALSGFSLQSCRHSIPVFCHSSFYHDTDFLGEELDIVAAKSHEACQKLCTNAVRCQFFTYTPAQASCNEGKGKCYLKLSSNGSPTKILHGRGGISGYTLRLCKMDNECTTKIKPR
T1 sequence (P03952 391-638 limits assumed): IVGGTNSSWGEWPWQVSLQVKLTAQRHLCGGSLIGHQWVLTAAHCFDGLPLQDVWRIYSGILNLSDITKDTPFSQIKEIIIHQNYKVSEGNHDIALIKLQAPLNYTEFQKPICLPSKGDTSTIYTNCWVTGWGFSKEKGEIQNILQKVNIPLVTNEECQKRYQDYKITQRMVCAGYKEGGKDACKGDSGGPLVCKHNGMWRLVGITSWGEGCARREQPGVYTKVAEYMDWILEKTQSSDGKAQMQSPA
T1 sequence (P03952 20-390 partner limits assumed): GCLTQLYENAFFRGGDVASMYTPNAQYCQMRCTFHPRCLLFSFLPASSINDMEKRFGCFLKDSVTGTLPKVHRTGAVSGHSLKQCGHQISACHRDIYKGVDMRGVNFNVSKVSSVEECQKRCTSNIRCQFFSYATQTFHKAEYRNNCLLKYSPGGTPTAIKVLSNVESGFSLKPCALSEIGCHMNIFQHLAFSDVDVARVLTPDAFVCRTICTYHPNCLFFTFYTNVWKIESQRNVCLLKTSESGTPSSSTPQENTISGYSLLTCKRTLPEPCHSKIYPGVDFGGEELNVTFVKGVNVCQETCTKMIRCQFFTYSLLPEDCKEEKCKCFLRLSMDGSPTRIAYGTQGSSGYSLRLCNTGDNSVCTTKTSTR

Row | SMILES | IC50 (Human plasma kallikrein) | IC50 (human factor XIa)
1 | CO[C@@H](C)[C@@H](c1ccccc1)n1cc(C(=O)N2CCC[C@@]3(C2)OC(=O)Nc2ccc(Cl)c(F)c23)cn1 [Example 11, (R)-6-Chloro-5-fluoro-1′-(1-((1R,2S)-2-methoxy-1-phenylpropyl)-1H-pyrazole-4-carbonyl)spiro[benzo[d][1,3]oxazine-4,3′-piepridine]-2(1H)-one] | 20 nM | 4330 nM
2 | COCC(c1ccccc1)n1cc(C(=O)N2CCC[C@@]3(C2)OC(=O)Nc2ccc(Cl)c(F)c23)cn1 (stereo partly drawn) [Example 14, (4R)-6-Chloro-5-fluoro-1′-(1-(2-methoxy-1-phenylethyl)-1H-pyrazole-4-carbonyl)spiro[benzo[d][1,3]oxazine-4,3′-piperidin]-2(1H)-one] | 16.2 nM | 1530 nM
3 | CO[C@H](C)[C@H](c1ccccc1)n1cc(C(=O)N2CCC[C@@]3(C2)OC(=O)Nc2ccc(Cl)c(F)c23)cn1 [Example 15, (R)-6-Chloro-5-fluoro-1′-(1-((1S,2R)-2-methoxy-1-phenylpropyl)-1H-pyrazole-4-carbonyl)spiro[benzo[d][1,3]oxazine-4,3′-piperidin]-2(1H)-one] | 38.1 nM | 2710 nM
4 | O=C1Nc2ccc(Cl)c(F)c2[C@@]2(CCCN(C(=O)c3cnn([C@](CO)(CC4CC4)c4ccc(F)cc4)c3)C2)O1 [Example 34, (R)-6-Chloro-1′-(1-((R)-1-cyclopropyl-2-(4-fluorophenyl)-3-hydroxypropan-2-yl)-1H-pyrazole-4-carbonyl)-5-fluorospiro[benzo[d][1,3]oxazine-4,3′-piperidin]-2(1H)-one] | 13.1 nM | 270 nM
5 | O=C1Nc2ccc(Cl)c(F)c2[C@@]2(CCCN(C(=O)c3cnc([C@@H](O)c4ccc(F)cc4)[nH]3)C2)O1 [Example 77] | 56.6 nM | 8130 nM

Continued by falling IC50 (Human plasma kallikrein), values first:

Row | IC50 (Human plasma kallikrein) | IC50 (human factor XIa) | SMILES
6 | 40.3 nM | 1450 nM | C[C@@H](O)[C@H](c1ccccc1)n1cc(C(=O)N2CCC[C@@]3(C2)OC(=O)Nc2ccc(Cl)c(F)c23)cn1 [Example 16, (R)-6-Chloro-5-fluoro-1′-(1-((1S,2R)-2-hydroxy-1-phenylpropyl)-1H-pyrazole-4-carbonyl)spiro[benzo[d][1,3]oxazine-4,3′-piperidin]-2(1H)-one]
7 | 29.7 nM | 5590 nM | C[C@H](O)[C@@H](c1ccccc1)n1cc(C(=O)N2CCC[C@@]3(C2)OC(=O)Nc2ccc(Cl)c(F)c23)cn1 [Example 9, (R)-6-Chloro-5-fluoro-1′-(1-((1R,2S)-2-hydroxy-1-phenylpropyl)-1H-pyrazole-4-carbonyl)spiro[benzo[d][1,3]oxazine-4,3′-piperidin]-2(1H)-one]
8 | 19.3 nM | 1770 nM | O=C1Nc2ccc(Cl)c(F)c2[C@@]2(CCCN(C(=O)c3nc(Cc4ccccc4)c[nH]3)C2)O1 [Example 65, (R)-1′-(4-Benzyl-1H-imidazole-2-carbonyl)-6-chloro-5-fluorospiro[benzo[d][1,3]oxazine-4,3′-piperidin]-2(1H)-one]
9 | 16.1 nM | 4580 nM | O=C1Nc2ccc(Cl)c(F)c2[C@@]2(CCCN(C(=O)c3cnc(Cc4ccc(F)cc4)[nH]3)C2)O1 [Example 76, (R)-6-Chloro-5-fluoro-1′-(2-(4-fluorobenzyl)-1H-imidazole-5-carbonyl)spiro[benzo[d][1,3]oxazine-4,3′-piperidin]-2(1H)-one]
10 | 7.9 nM | 1370 nM | O=C1Nc2ccc(Cl)c(F)c2[C@@]2(CC(C3CC3)CN(C(=O)c3cnn(Cc4ccccc4)c3)C2)O1 (stereo partly drawn) [Example 22, (4R)-1′-(1-Benzyl-1H-pyrazole-4-carbonyl)-6-chloro-5′-cyclopropyl-5-fluorospiro[benzo[d][1,3]oxazine-4,3′-piperidin]-2(1H)-one]
11 | 5.7 nM | 946 nM | CCC(c1ccc(F)cc1)c1c[nH]c(C(=O)N2CCC[C@@]3(C2)OC(=O)Nc2ccc(Cl)c(F)c23)n1 (stereo partly drawn) [Example 70, (4R)-6-Chloro-5-fluoro-1′-(4-(1-(4-fluorophenyl)propyl)-1H-imidazole-2-carbonyl)spiro[benzo[d][1,3]oxazine-4,3′-piperidin]-2(1H)-one]
